These results are taken from patent publication US20070184165A1, “Compositions and methods for improving the efficiency of preservatives in foods” (RAD NATURAL TECHNOLOGIES LTD., priority 2003, published 2007).

One may read the % Inhibition as the share of the control response that was lost under treatment. The low end stands for a weak effect, the high end for a strong effect.

The test system of experiment [1] is mold. As to the kind of experiment: Deterioration of whole wheat flour due to mold, measured by carbon dioxide formation. To be noted: for carbon dioxide formation: 22% moisture, 30° C. On the procedure:
Whole wheat flour which contained 22% moisture was maintained at a temperature of 30° C. The deterioration due to mold formation was measured by determining the amount (%) of carbon dioxide which formed over a ten day period or until the maximum of 15-16% was attained, whichever was the sooner.

Experiment [2] relates to salmonella. As to the kind of experiment: Inhibition of salmonella growth. To be noted: control growth at 8 hours = 100%. It counts as cell-based. On the procedure:
The inhibition of salmonella growth was determined for the title combination and this was compared with control (absence of inhibitors) and using separately, sodium rosmarinate and sodium acetate. The results are as follows, comparing the inhibition of growth effect of inhibitors, control growth being taken arbitrarily at 8 hours, as 100%: […]

A short description of experiment [3]: Inhibition of oxidative deterioration in soybean oil at 180° C. (hexanal and trans-decadienal formed). To be noted: four hours, 0.02%. On the procedure:
(c) Inhibition of oxidative deterioration in soybean oil at 180° C. (four hours) was determined by dissolving Origanox™ OS-A, rosemary oil or TBHQ in the soybean oil and determining the amount of hexanal and trans-decadienal formed in the product, compared with a control in which no antioxidant was used.

Experiment [4] in a line: Myoglobin stabilization (colour intensity) in treated fresh beef. Particulars: after seven days, 250 ppm. As to the method:
(c) Fresh beef was treated, by injection, with “Origanox™ WS-A” (b)(i), above. The thus-treated fresh beef product contained approximately 32.5 ppm sodium rosmarinate and 250 ppm ascorbic acid. The product was tested for myoglobin stabilization by measuring absorption, i.e. intensity of color, at 542 nm, after seven days.

The nature of experiment [5]: Freshness of cured beef by formation of malondialdehyde. On the procedure: (d) Cured beef was treated with “Origanox™ WS-A” (b(ii), above). The thus-treated cured beef product contained approximately 32.5 ppm sodium rosmarinate and 500 ppm ascorbic acid. The higher proportion of ascorbic acid in this case was to inhibit the formation of toxic nitrosamines. The product was tested for freshness as evidenced by the formation of malondialdehyde after 1, 4 and 7 days, and compared with control (no treatment) and with other treatments.

SMILES strings stand for the structures.

Take `CCC(=O)[O-].CCC(=O)[O-].[Ca+2]` [Ca propionate, calcium propionate]: the “time until maximum % carbon dioxide (maximum deterioration) was reached” value in experiment [1] (0.2%) was 7 to 8 days. In addition, the carbon dioxide formation in experiment [1] (Day 0, 0.2%) is 0.54%; in experiment [1] (Day 1, 0.2%), 0.81%; in experiment [1] (Day 2, 0.2%), 1.1%; in experiment [1] (Day 3, 0.2%), 1.3%; in experiment [1] (Day 4, 0.2%) it was 2.0%; in experiment [1] (Day 5, 0.2%) it was 3.2%. Further, the carbon dioxide formation in experiment [1] (Day 6, 0.2%) is recorded as 6.5%; in experiment [1] (Day 7, 0.2%) it was 14.6%; in experiment [1] (Day 8, 0.2%), 15%.
With `CC(=O)[O-].[Na+]` [Sodium acetate], the “% Growth” value in experiment [2] (4 hours, 1.0%) is recorded as 33%; in experiment [2] (4 hours, 2.0%), 17%; in experiment [2] (8 hours, 1.0%), 75%; in experiment [2] (8 hours, 2.0%) it was 62%.
`CC(C)(C)c1cc(O)ccc1O` [TBHQ]: the “% Inhibition” value in experiment [3] worked out at 32%.
With `O=C1O[C@H]([C@@H](O)CO)C(O)=C1O` [ascorbic acid], in experiment [4], the “absorption at 542 nm” value was 0.513. Moreover, the Formation of malondialdehyde in experiment [5] (day 1, 500 ppm) was 0.788 mg/kg; in experiment [5] (day 4, 500 ppm) it was 1.224 mg/kg; in experiment [5] (day 7, 500 ppm), 1.944 mg/kg.
As for `O=C(/C=C/c1ccc(O)c(O)c1)O[C@H](Cc1ccc(O)c(O)c1)C(=O)O` [sodium rosmarinate], the Formation of malondialdehyde worked out at 0.798 mg/kg in experiment [5] (day 1, 32.5 ppm); 1.097 mg/kg in experiment [5] (day 4, 32.5 ppm); 1.327 mg/kg in experiment [5] (day 7, 32.5 ppm).
